{"source": "patent US11674123B2", "about": "“Generating arterial endothelial cell populations” (Wisconsin Alumni Research Foundation, priority 2015, dated 2023)", "molecules": {"B1": {"name": "PDGF-BB: platelet derived growth factor BB (protein, UniProt P01127 82-190, looked up)", "Platelet-derived growth …": "SLGSLTIAEPAMIAECKTRTEVFEISRRLIDRTNANFLVWPPCVEVQRCSGCCNNRNVQCRPTQVQLRPVQVRKIEIVRKKPIFKKATVTLEDHLACKCETVAAARPVT", "modifications": "homodimer"}, "B2": {"name": "WNT3A: recombinant protein, Wnt signaling factor added to medium (protein, UniProt P56704 19-352, looked up)", "Protein Wnt-3a": "SYPIWWSLAVGPQYSSLGSQPILCASIPGLVPKQLRFCRNYVEIMPSVAEGIKIGIQECQHQFRGRRWNCTTVHDSLAIFGPVLDKATRESAFVHAIASAGVAFAVTRSCAEGTAAICGCSSRHQGSPGKGWKWGGCSEDIEFGGMVSREFADARENRPDARSAMNRHNNEAGRQAIASHMHLKCKCHGLSGSCEVKTCWWSQPDFRAIGDFLKDKYDSASEMVVEKHRESRGWVETLRPRYTYFKVPTERDLVYYEASPNFCEPNPETGSFGTRDRTCNVSSHGIDGCDLLCCGRGHNARAERRREKCRCVFHWCCYVSCQECTRVYDVHTCK"}}, "format_in_all_cases": "cell-based, human", "key": {"[1]": {"system": "EFNB2-tdTomato/EPHB4-EGFP dual reporter cells (H1 ES cells)", "experiment": "Arterial endothelial differentiation of EFNB2-tdTomato/EPHB4-EGFP dual reporter cells, flow cytometry", "conditions": "for arterial endothelial cell differentiation (EFNB2-tdTomato high/EPHB4-EGFP low cells), factor added: added day 2 to day 6 to E5 + 50 ng/ml VEGFA + 10 μM SB431542, 5 μM L690, 5 μg/ml LDL, 100 ng/ml PDGF-BB, FIGS. 3E-3F; for EFNB2-tdTomato high/EPHB4-EGFP low cells, factor removed from five factors medium: individual removal, FIGS. 4A-4B; for arterial endothelial differentiation of human pluripotent stem cells (conclusion after FACS sorting and RT-qPCR): summary statement; for arterial specification (EFNB2-tdTomato and EPHB4-EGFP expression), factor added singly: added to Control medium (E5+100 ng/ml FGF2+10 μM SB431542): 50 ng/ml VEGF, 5 μM RESV or 50 ng/ml WNT3A, FIG. 11; for arterial differentiation (EFNB2-tdTomato high/EPHB4-EGFP low cells), factor removed: factor removed from the medium after mesoderm formation, day 2 to day 6, FIGS. 3A-3F; for EFNB2-tdTomato high/EPHB4-EGFP low cells / arterial differentiation, factor added to five factors medium: 100 ng/ml PDGF-BB or exogenous WNT3A, FIGS. 4A-4F, FIG. 9", "procedure": "(A) Flow cytometric analysis of EFNB2-tdTomato and EPHB4-EGFP expression on CD31 and CD144 gated endothelial cells. EFNB2-tdTomato/EPHB4-EGFP dual reporter cells (hetero knock-in in H1 cells for each gene) were first differentiated into mesoderm cells by E8BAC medium (E8 medium supplemented with BMP4, Activin-A, and CHIR99021). E5 (E8 medium minus FGF2, TGFβ1, and insulin) medium supplemented with 100 ng/ml FGF2, 50 ng/ml VEGFA, and 50 ng/ml BMP4 was used to induce mesoderm cells to differentiate into endothelial cells from day 2 to day 6. Either Insulin (20 μg/ml) or Ly294002 (16 μM, a PI3K inhibitor) was added to the medium as indicated from day 2 to day 6. (B) Statistics of EFNB2-tdTommato^high/EPHB4-EGFP^low cells. […] (C) Western blots showing AKT activity. Protein was harvested at day 3. (D) Flow cytometric analysis of EFNB2-tdTomato and EPHB4-EGFP expression on CD31 and CD144 gated endothelial cells. E5 medium supplemented with 50 ng/ml VEGFA, 50 ng/ml BMP4 or 10 μM SB431542 was used to induce mesoderm cells to differentiate into endothelial cells from day 2 to day 6. (E) Flow cytometric analysis of EFNB2-tdTomato and EPHB4-EGFP expression on CD31 and CD144 gated endothelial cells. ES cells were first differentiated into mesoderm cells as mentioned above. E5 medium supplemented with 50 ng/ml VEGFA and 10 μM SB431542 was used as the base medium induce mesoderm cells to differentiate into endothelial cells from day 2 to day 6. Other factors were added to the base medium as indicated. (F) Statistics of EFNB2-tdTomato^high/EPHB4-EGFP^low cells. […] FIGS. 4A-4H present flow cytometric analysis of expression of EphrinB2 and Ephrin Type B Receptor 4 reporter constructs (EFNB2-tdTomato and EPHB4-EGFP) on CD31- and CD144-gated endothelial cells obtained after differentiation in various medium, as described. FIG. 4B illustrates the percentage of arterial endothelial cells (AEC) (EFNB2-tdTomato^high/EPHB4-EGFP^low) obtained after differentiation in the various medium conditions of FIG. 4A. Data are represented as mean±SD. […] FIG. 4D illustrates the percentage of CXCR4^+CD144^+ arterial endothelial cells obtained after differentiation in the various medium conditions of FIG. 4C. […] FIG. 4F illustrates the percentage of DLL4^+CD144^+ arterial endothelial cells obtained after differentiation in the various medium conditions of FIG. 4E. 5 μM L-690,330 (a bisphosphonate inhibitor of inositol monophosphatase), and 100 ng/ml PDGF-BB (platelet derived growth factor BB) were used. […] FIGS. 11A-11C present arterial endothelial cell differentiation data. (A) Schematic of arterial endothelial cell differentiation protocol. ES cells were first differentiated into mesoderm cells by E8BAC medium (E8 medium supplemented with 5 ng/ml BMP4, 25 ng/ml Activin A, and 1 μM CHIR99021). E5 (E8 medium minus FGF2, TGFβ1, and insulin) medium supplemented with 100 ng/ml FGF2 and 10 μM SB431542 was then used to induce mesoderm cells to differentiate into endothelial cells. (B) Flow cytometric analysis of CD31 and CD34 expression. E5+100 ng/ml FGF2+10 μM SB431542 medium (“Control”) supplemented with 50 ng/ml VEGF, 5 μM RESV (resveratrol, a Notch activator), or 50 ng/ml WNT3A was used to induce mesoderm cells to differentiate into arterial endothelial cells. (C) Flow cytometric analysis of EFNB2-tdTomato and EPHB4-EGFP expression."}, "[2]": {"system": "CXCR4+CD144+ and DLL4+CD144+ arterial endothelial cells", "experiment": "Flow cytometry of CXCR4/CD144 and DLL4/CD144 on differentiated endothelial cells", "conditions": "FIGS. 4C-4F; for CXCR4 and DLL4 (CD144+CXCR4+ and CD144+DLL4+ cells), factor removed from five factors medium: individual removal", "text": "FIGS. 4A-4H present flow cytometric analysis of expression of EphrinB2 and Ephrin Type B Receptor 4 reporter constructs (EFNB2-tdTomato and EPHB4-EGFP) on CD31- and CD144-gated endothelial cells obtained after differentiation in various medium, as described. FIG. 4B illustrates the percentage of arterial endothelial cells (AEC) (EFNB2-tdTomato^high/EPHB4-EGFP^low) obtained after differentiation in the various medium conditions of FIG. 4A. Data are represented as mean±SD. […] FIG. 4D illustrates the percentage of CXCR4^+CD144^+ arterial endothelial cells obtained after differentiation in the various medium conditions of FIG. 4C. […] FIG. 4F illustrates the percentage of DLL4^+CD144^+ arterial endothelial cells obtained after differentiation in the various medium conditions of FIG. 4E. 5 μM L-690,330 (a bisphosphonate inhibitor of inositol monophosphatase), and 100 ng/ml PDGF-BB (platelet derived growth factor BB) were used. […] Arterial endothelial cell differentiation and expansion: It took six days for AECs differentiation. From day 0 to day 2, human ES/iPS cells were first differentiated into mesoderm cells as mentioned above. From day 2 to day 6, E5 medium was used and growth factors or small molecules were added as indicated. With the combination of “five factors,” AECs were induced by E5 medium supplemented with 100 ng/ml FGF, 50 ng/ml VEGF, 10 μM SB431542, 5 μM RESV, and 10 μM […] from day 2 to day 6."}, "AKT": {"system": "AKT", "experiment": "Western blot of AKT activity (pAKT) during differentiation", "conditions": "protein harvested at day 3, insulin 20 μg/ml, Ly294002 16 μM, FIG. 3C", "procedure": "FIGS. 3A-3F present candidate pathways critical for arteriovenous specification. (A) Flow cytometric analysis of EFNB2-tdTomato and EPHB4-EGFP expression on CD31 and CD144 gated endothelial cells. EFNB2-tdTomato/EPHB4-EGFP dual reporter cells (hetero knock-in in H1 cells for each gene) were first differentiated into mesoderm cells by E8BAC medium (E8 medium supplemented with BMP4, Activin-A, and CHIR99021). E5 (E8 medium minus FGF2, TGFβ1, and insulin) medium supplemented with 100 ng/ml FGF2, 50 ng/ml VEGFA, and 50 ng/ml BMP4 was used to induce mesoderm cells to differentiate into endothelial cells from day 2 to day 6. Either Insulin (20 μg/ml) or Ly294002 (16 μM, a PI3K inhibitor) was added to the medium as indicated from day 2 to day 6. (B) Statistics of EFNB2-tdTommato^high/EPHB4-EGFP^low cells. Data are represented as mean±SD. *: P<0.05, n=5. (C) Western blots showing AKT activity. Protein was harvested at day 3. (D) Flow cytometric analysis of EFNB2-tdTomato and EPHB4-EGFP expression on CD31 and CD144 gated endothelial cells. E5 medium supplemented with 50 ng/ml VEGFA, 50 ng/ml BMP4 or 10 μM SB431542 was used to induce mesoderm cells to differentiate into endothelial cells from day 2 to day 6. (E) Flow cytometric analysis of EFNB2-tdTomato and EPHB4-EGFP expression on CD31 and CD144 gated endothelial cells. ES cells were first differentiated into mesoderm cells as mentioned above. […]"}}, "note": "Entries after “also recorded” stand apart in the source; their conditions may differ.", "data": [{"molecule": "CC(Oc1ccc(O)cc1)(P(=O)(O)O)P(=O)(O)O", "note": "[L-690,330, reference compound]", "values": [{"measurement": "arterial endothelial cell differentiation (EFNB2-tdTomato high/EPHB4-EGFP low cells), factor added", "setting": "[1]", "result": "increased arterial endothelial cell differentiation"}, {"measurement": "EFNB2-tdTomato high/EPHB4-EGFP low cells, factor removed from five factors medium", "setting": "[1]", "result": "fewer"}, {"measurement": "arterial endothelial differentiation of human pluripotent stem cells (conclusion after FACS sorting and RT-qPCR)", "setting": "[1]", "result": "promote arterial endothelial differentiation"}, {"measurement": "CXCR4 and DLL4 (CD144+CXCR4+ and CD144+DLL4+ cells), factor removed from five factors medium", "setting": "[2]", "result": "no reduction"}]}, {"molecule": "Oc1ccc(C=Cc2cc(O)cc(O)c2)cc1", "note": "[RESV, 3,4′,5-trihydroxystilbene, reference compound]", "values": [{"measurement": "arterial specification (EFNB2-tdTomato and EPHB4-EGFP expression), factor added singly", "setting": "[1]", "result": "promoted increased arterial specification"}, {"measurement": "EFNB2-tdTomato high/EPHB4-EGFP low cells, factor removed from five factors medium", "setting": "[1]", "result": "decrease"}]}, {"molecule": "NC(=O)c1ccc(-c2nc(-c3ccc4c(c3)OCO4)c(-c3ccccn3)[nH]2)cc1", "note": "[SB431542, reference compound]", "values": [{"measurement": "arterial differentiation (EFNB2-tdTomato high/EPHB4-EGFP low cells), factor removed", "setting": "[1]", "result": "inhibited arterial differentiation"}, {"measurement": "EFNB2-tdTomato high/EPHB4-EGFP low cells, factor removed from five factors medium", "setting": "[1]", "result": "decrease"}, {"measurement": "CXCR4 and DLL4 (CD144+CXCR4+ and CD144+DLL4+ cells), factor removed from five factors medium", "setting": "[2]", "result": "decreased"}]}, {"molecule": "FGF2: human fibroblast growth factor 2", "values": [{"measurement": "arterial endothelial cell differentiation (EFNB2-tdTomato high/EPHB4-EGFP low cells), factor added", "setting": "[1]", "result": "increased arterial endothelial cell differentiation"}, {"measurement": "EFNB2-tdTomato high/EPHB4-EGFP low cells, factor removed from five factors medium", "setting": "[1]", "result": "decrease"}, {"measurement": "arterial endothelial differentiation of human pluripotent stem cells (conclusion after FACS sorting and RT-qPCR)", "setting": "[1]", "result": "promote arterial endothelial differentiation"}, {"measurement": "CXCR4 and DLL4 (CD144+CXCR4+ and CD144+DLL4+ cells), factor removed from five factors medium", "setting": "[2]", "result": "decreased"}]}, {"molecule": "TGF-β", "values": [{"measurement": "arterial endothelial differentiation of human pluripotent stem cells (conclusion after FACS sorting and RT-qPCR)", "setting": "[1]", "result": "inhibit arterial endothelial differentiation"}]}, {"molecule": "insulin: insulin, medium component, activates AKT", "values": [{"measurement": "arterial differentiation (EFNB2-tdTomato high/EPHB4-EGFP low cells), factor removed", "setting": "[1]", "result": "triggered AEC differentiation"}, {"measurement": "arterial endothelial differentiation of human pluripotent stem cells (conclusion after FACS sorting and RT-qPCR)", "setting": "[1]", "result": "inhibit arterial endothelial differentiation"}, {"measurement": "Phosphorylated AKT (pAKT)", "setting": "AKT", "result": "increased"}]}, {"molecule": "B1", "values": [{"measurement": "EFNB2-tdTomato high/EPHB4-EGFP low cells / arterial differentiation, factor added to five factors medium", "setting": "[1]", "result": "fewer"}, {"measurement": "arterial endothelial cell differentiation (EFNB2-tdTomato high/EPHB4-EGFP low cells), factor added", "setting": "[1]", "result": "inhibited arterial differentiation"}, {"measurement": "arterial endothelial differentiation of human pluripotent stem cells (conclusion after FACS sorting and RT-qPCR)", "setting": "[1]", "result": "inhibit arterial endothelial differentiation"}, {"measurement": "CD144+CXCR4+ and CD144+DLL4+ cells, factor added to five factors medium", "setting": "[2]; 100 ng/ml PDGF-BB", "result": "no reduction"}]}, {"molecule": "B2", "values": [{"measurement": "EFNB2-tdTomato high/EPHB4-EGFP low cells / arterial differentiation, factor added to five factors medium", "setting": "[1]", "result": "did not further increase arterial differentiation"}, {"measurement": "arterial specification (EFNB2-tdTomato and EPHB4-EGFP expression), factor added singly", "setting": "[1]", "result": "promoted increased arterial specification; also recorded: promoted arterial differentiation"}]}]}
